Values quoted from earlier work as cited in patent US8637310B2, “Use of a rock inhibitor to sustain primary human keratinocytes in a proliferative state” (The United States of America, as represented by the …, priority 2008, dated 2014).

System: airway epithelial cells
Details: Moore et al. 2004; cited from earlier work

O=S(=O)(c1cccc2cnccc12)N1CCCNCC1 [HA 1077]
effect on airway epithelial cells: induces membrane ruffling, loss of actin stress fibers and apoptosis
